According to ChEMBL document CHEMBL1201862, “PubChem BioAssay data set” (2004):
Calls of active or inactive are those of the source.

Legend:
[1] = biological target: T1, Long-chain-fatty-acid--AMP ligase FadD28 (Mycobacterium tuberculosis, UniProt P9WQ59); experiment: Fluorescence polarization aasay to screen for inhibitors that compete for the binding of FadD28 to a bisubstrate Measured in Biochemical System Using Plate Reader - 2147-01_Inhibitor_Dose_CherryPick_Activity.; format: functional, Mycobacterium tuberculosis H37Rv
T1 sequence (P9WQ59 whole entry): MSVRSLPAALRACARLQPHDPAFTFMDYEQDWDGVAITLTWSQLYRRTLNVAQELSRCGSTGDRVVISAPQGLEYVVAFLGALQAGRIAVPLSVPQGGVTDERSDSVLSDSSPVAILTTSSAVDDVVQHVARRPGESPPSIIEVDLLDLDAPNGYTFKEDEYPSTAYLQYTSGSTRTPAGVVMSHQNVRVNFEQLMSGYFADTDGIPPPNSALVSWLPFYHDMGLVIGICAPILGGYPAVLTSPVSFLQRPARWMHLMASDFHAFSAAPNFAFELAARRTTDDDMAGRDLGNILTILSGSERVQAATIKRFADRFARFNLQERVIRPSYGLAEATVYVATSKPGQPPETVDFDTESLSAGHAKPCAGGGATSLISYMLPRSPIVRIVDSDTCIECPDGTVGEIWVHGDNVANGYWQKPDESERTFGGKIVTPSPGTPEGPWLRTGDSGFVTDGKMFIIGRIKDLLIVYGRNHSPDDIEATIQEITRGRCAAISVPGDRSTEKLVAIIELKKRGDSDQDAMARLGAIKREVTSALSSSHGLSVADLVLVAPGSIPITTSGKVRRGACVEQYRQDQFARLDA

[2] = biological target: T2, Histone-lysine N-methyltransferase NSD2 (Homo sapiens, UniProt O96028); format: biochemical
T2 sequence (O96028 whole entry): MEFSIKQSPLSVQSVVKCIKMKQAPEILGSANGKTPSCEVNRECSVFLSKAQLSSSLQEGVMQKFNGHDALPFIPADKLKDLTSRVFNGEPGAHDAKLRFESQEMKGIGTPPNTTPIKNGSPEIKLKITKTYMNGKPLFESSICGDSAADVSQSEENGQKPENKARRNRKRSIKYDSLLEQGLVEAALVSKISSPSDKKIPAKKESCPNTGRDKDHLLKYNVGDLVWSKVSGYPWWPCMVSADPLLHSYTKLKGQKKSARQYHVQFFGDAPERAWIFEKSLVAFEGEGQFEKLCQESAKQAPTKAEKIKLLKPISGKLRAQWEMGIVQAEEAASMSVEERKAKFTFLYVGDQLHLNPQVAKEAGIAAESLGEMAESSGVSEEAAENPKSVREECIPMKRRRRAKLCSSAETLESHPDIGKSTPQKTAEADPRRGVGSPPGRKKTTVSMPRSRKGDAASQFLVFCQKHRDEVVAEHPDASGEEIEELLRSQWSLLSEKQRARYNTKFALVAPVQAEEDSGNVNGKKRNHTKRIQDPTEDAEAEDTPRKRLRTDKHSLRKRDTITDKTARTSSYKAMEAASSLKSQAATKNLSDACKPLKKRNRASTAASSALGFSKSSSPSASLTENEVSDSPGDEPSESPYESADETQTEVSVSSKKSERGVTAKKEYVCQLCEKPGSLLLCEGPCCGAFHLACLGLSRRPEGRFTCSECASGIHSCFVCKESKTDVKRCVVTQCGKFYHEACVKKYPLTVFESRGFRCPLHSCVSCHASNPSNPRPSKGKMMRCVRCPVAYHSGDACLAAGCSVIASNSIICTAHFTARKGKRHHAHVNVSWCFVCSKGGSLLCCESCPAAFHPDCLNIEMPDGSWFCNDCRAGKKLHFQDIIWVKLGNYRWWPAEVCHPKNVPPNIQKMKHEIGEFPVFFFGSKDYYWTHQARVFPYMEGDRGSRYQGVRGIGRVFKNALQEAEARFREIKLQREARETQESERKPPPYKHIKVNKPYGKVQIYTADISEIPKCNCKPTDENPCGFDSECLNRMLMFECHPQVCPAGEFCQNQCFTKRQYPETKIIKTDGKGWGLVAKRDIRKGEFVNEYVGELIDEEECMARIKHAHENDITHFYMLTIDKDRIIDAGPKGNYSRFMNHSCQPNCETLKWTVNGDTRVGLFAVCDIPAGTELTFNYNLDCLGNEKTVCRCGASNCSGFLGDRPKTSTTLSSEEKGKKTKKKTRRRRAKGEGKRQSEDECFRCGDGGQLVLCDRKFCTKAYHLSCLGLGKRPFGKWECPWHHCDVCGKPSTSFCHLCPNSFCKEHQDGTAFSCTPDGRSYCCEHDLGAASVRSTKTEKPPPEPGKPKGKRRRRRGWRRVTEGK

[3] = biological target: Ribosomal protein S6 kinase beta-1 (Homo sapiens, UniProt P23443); format: functional;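 note: measured as one member of a kinome-wide profiling panel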
Ribosomal protein S6 kinase beta-1, sequence (P23443 whole entry): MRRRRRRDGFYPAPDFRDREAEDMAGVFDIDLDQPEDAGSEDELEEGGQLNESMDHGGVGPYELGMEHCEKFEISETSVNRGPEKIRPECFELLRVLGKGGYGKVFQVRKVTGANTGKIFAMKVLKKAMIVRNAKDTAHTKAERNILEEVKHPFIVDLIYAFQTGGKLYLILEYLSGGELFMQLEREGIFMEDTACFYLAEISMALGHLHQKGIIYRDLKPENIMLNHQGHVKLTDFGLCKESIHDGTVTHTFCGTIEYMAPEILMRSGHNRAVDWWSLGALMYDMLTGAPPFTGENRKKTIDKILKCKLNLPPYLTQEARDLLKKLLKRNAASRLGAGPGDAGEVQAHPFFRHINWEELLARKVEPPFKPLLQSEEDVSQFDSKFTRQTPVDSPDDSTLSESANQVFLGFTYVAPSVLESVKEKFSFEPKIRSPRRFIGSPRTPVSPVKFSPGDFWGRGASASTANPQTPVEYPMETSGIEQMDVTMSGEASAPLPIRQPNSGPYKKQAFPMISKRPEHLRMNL

CC(/C=C1\SC(=S)N(NS(=O)(=O)c2ccc(C)cc2)C1=O)=C\c1ccccc1
AC50 [1]: > 100 µM (inactive)
AC50 [2]: 9.98 µM (active)

CN1CCC(c2c(O)cc(O)c3c(=O)cc(-c4ccccc4Cl)oc23)C(O)C1 (stereo not drawn)
Ki [3]: > 6.31 µM (inactive)
